{"source": "PubChem BioAssay (NCI)", "experiment_in_all_cases": "NCI anticancer screen, dose series, 48 h", "key": {"786-0 renal": {"test_system": "786-0 renal"}, "A498 renal": {"test_system": "A498 renal"}, "A549 NSCLC": {"test_system": "A549 NSCLC"}, "ACHN renal": {"test_system": "ACHN renal"}, "BT-549 breast": {"test_system": "BT-549 breast"}, "CAKI-1 renal": {"test_system": "CAKI-1 renal"}, "CCRF-CEM leukemia": {"test_system": "CCRF-CEM leukemia"}, "COLO 205 colon": {"test_system": "COLO 205 colon"}, "DU-145 prostate": {"test_system": "DU-145 prostate"}, "EKVX NSCLC": {"test_system": "EKVX NSCLC"}, "HCC-2998 colon": {"test_system": "HCC-2998 colon"}, "HCT-116 colon": {"test_system": "HCT-116 colon"}, "HCT-15 colon": {"test_system": "HCT-15 colon"}, "HL-60(TB) leukemia": {"test_system": "HL-60(TB) leukemia"}, "HOP-62 NSCLC": {"test_system": "HOP-62 NSCLC"}, "HOP-92 NSCLC": {"test_system": "HOP-92 NSCLC"}, "HS 578T breast": {"test_system": "HS 578T breast"}, "HT29 colon": {"test_system": "HT29 colon"}, "IGROV1 ovarian": {"test_system": "IGROV1 ovarian"}, "K-562 leukemia": {"test_system": "K-562 leukemia"}, "KM12 colon": {"test_system": "KM12 colon"}, "LOX IMVI melanoma": {"test_system": "LOX IMVI melanoma"}, "M14 melanoma": {"test_system": "M14 melanoma"}, "MALME-3M melanoma": {"test_system": "MALME-3M melanoma"}, "MCF7 breast": {"test_system": "MCF7 breast"}, "MDA-MB-231 breast": {"test_system": "MDA-MB-231 breast"}, "MDA-MB-435": {"test_system": "MDA-MB-435"}, "MDA-N": {"test_system": "MDA-N"}, "MOLT-4 leukemia": {"test_system": "MOLT-4 leukemia"}, "NCI-H226 lung": {"test_system": "NCI-H226 lung"}, "NCI-H23 lung": {"test_system": "NCI-H23 lung"}, "NCI-H460 lung": {"test_system": "NCI-H460 lung"}, "NCI-H522 lung": {"test_system": "NCI-H522 lung"}, "NCI/ADR-RES ovarian": {"test_system": "NCI/ADR-RES ovarian"}, "OVCAR-3 ovarian": {"test_system": "OVCAR-3 ovarian"}, "OVCAR-4 ovarian": {"test_system": "OVCAR-4 ovarian"}, "OVCAR-5 ovarian": {"test_system": "OVCAR-5 ovarian"}, "OVCAR-8 ovarian": {"test_system": "OVCAR-8 ovarian"}, "PC-3 prostate": {"test_system": "PC-3 prostate"}, "RPMI-8226 leukemia": {"test_system": "RPMI-8226 leukemia"}, "RXF 393 renal": {"test_system": "RXF 393 renal"}, "SF-268 CNS": {"test_system": "SF-268 CNS"}, "SF-295 CNS": {"test_system": "SF-295 CNS"}, "SF-539 CNS": {"test_system": "SF-539 CNS"}, "SK-MEL-2 melanoma": {"test_system": "SK-MEL-2 melanoma"}, "SK-MEL-28 melanoma": {"test_system": "SK-MEL-28 melanoma"}, "SK-MEL-5 melanoma": {"test_system": "SK-MEL-5 melanoma"}, "SK-OV-3 ovarian": {"test_system": "SK-OV-3 ovarian"}, "SN12C renal": {"test_system": "SN12C renal"}, "SNB-19 CNS": {"test_system": "SNB-19 CNS"}, "SNB-75 CNS": {"test_system": "SNB-75 CNS"}, "SR leukemia": {"test_system": "SR leukemia"}, "SW-620 colon": {"test_system": "SW-620 colon"}, "T-47D breast": {"test_system": "T-47D breast"}, "TK-10 renal": {"test_system": "TK-10 renal"}, "U251 CNS": {"test_system": "U251 CNS"}, "UACC-257 melanoma": {"test_system": "UACC-257 melanoma"}, "UACC-62 melanoma": {"test_system": "UACC-62 melanoma"}, "UO-31 renal": {"test_system": "UO-31 renal"}}, "note": "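Dose response: 5 concentrations. Exposure: 48 h. Format: 96-well plates. Endpoint: linear interpolation; highest concentration if not reached. TGI marks complete inhibition of growth.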", "data": [{"smiles": "COC(=O)C(Cc1ccc2c(c1)CCCC2)Cc1cc2c(cc1C(O)OC)CCC2", "note": "(centres undefined)", "values": [{"measurement": "TGI", "setting": "786-0 renal", "value": "> 100", "unit": "µM"}, {"measurement": "TGI", "setting": "A498 renal", "value": "> 100", "unit": "µM"}, {"measurement": "TGI", "setting": "A549 NSCLC", "value": "> 100", "unit": "µM"}, {"measurement": "TGI", "setting": "ACHN renal", "value": "> 100", "unit": "µM"}, {"measurement": "TGI", "setting": "BT-549 breast", "value": "> 100", "unit": "µM"}, {"measurement": "TGI", "setting": "CAKI-1 renal", "value": "> 100", "unit": "µM"}, {"measurement": "TGI", "setting": "CCRF-CEM leukemia", "value": "> 100", "unit": "µM"}, {"measurement": "TGI", "setting": "COLO 205 colon", "value": "> 100", "unit": "µM"}, {"measurement": "TGI", "setting": "DU-145 prostate", "value": "> 100", "unit": "µM"}, {"measurement": "TGI", "setting": "EKVX NSCLC", "value": "> 100", "unit": "µM"}, {"measurement": "TGI", "setting": "HCC-2998 colon", "value": "> 100", "unit": "µM"}, {"measurement": "TGI", "setting": "HCT-116 colon", "value": "> 100", "unit": "µM"}, {"measurement": "TGI", "setting": "HCT-15 colon", "value": "> 100", "unit": "µM"}, {"measurement": "TGI", "setting": "HL-60(TB) leukemia", "value": 56.9, "unit": "µM"}, {"measurement": "TGI", "setting": "HOP-62 NSCLC", "value": "> 100", "unit": "µM"}, {"measurement": "TGI", "setting": "HOP-92 NSCLC", "value": "> 100", "unit": "µM"}, {"measurement": "TGI", "setting": "HS 578T breast", "value": "> 100", "unit": "µM"}, {"measurement": "TGI", "setting": "HT29 colon", "value": "> 100", "unit": "µM"}, {"measurement": "TGI", "setting": "IGROV1 ovarian", "value": "> 100", "unit": "µM"}, {"measurement": "TGI", "setting": "K-562 leukemia", "value": "> 100", "unit": "µM"}, {"measurement": "TGI", "setting": "KM12 colon", "value": "> 100", "unit": "µM"}, {"measurement": "TGI", "setting": "LOX IMVI melanoma", "value": "> 100", "unit": "µM"}, {"measurement": "TGI", "setting": "M14 melanoma", "value": "> 100", "unit": "µM"}, {"measurement": "TGI", "setting": "MALME-3M melanoma", "value": "> 100", "unit": "µM"}, {"measurement": "TGI", "setting": "MCF7 breast", "value": 65.1, "unit": "µM"}, {"measurement": "TGI", "setting": "MDA-MB-231 breast", "value": "> 100", "unit": "µM"}, {"measurement": "TGI", "setting": "MDA-MB-435", "value": "> 100", "unit": "µM"}, {"measurement": "TGI", "setting": "MDA-N", "value": "> 100", "unit": "µM"}, {"measurement": "TGI", "setting": "MOLT-4 leukemia", "value": "> 100", "unit": "µM"}, {"measurement": "TGI", "setting": "NCI-H226 lung", "value": "> 100", "unit": "µM"}, {"measurement": "TGI", "setting": "NCI-H23 lung", "value": "> 100", "unit": "µM"}, {"measurement": "TGI", "setting": "NCI-H460 lung", "value": "> 100", "unit": "µM"}, {"measurement": "TGI", "setting": "NCI-H522 lung", "value": "> 100", "unit": "µM"}, {"measurement": "TGI", "setting": "NCI/ADR-RES ovarian", "value": "> 100", "unit": "µM"}, {"measurement": "TGI", "setting": "OVCAR-3 ovarian", "value": "> 100", "unit": "µM"}, {"measurement": "TGI", "setting": "OVCAR-4 ovarian", "value": "> 100", "unit": "µM"}, {"measurement": "TGI", "setting": "OVCAR-5 ovarian", "value": "> 100", "unit": "µM"}, {"measurement": "TGI", "setting": "OVCAR-8 ovarian", "value": "> 100", "unit": "µM"}, {"measurement": "TGI", "setting": "PC-3 prostate", "value": "> 100", "unit": "µM"}, {"measurement": "TGI", "setting": "RPMI-8226 leukemia", "value": "> 100", "unit": "µM"}, {"measurement": "TGI", "setting": "RXF 393 renal", "value": 67.3, "unit": "µM"}, {"measurement": "TGI", "setting": "SF-268 CNS", "value": "> 100", "unit": "µM"}, {"measurement": "TGI", "setting": "SF-295 CNS", "value": "> 100", "unit": "µM"}, {"measurement": "TGI", "setting": "SF-539 CNS", "value": "> 100", "unit": "µM"}, {"measurement": "TGI", "setting": "SK-MEL-2 melanoma", "value": "> 100", "unit": "µM"}, {"measurement": "TGI", "setting": "SK-MEL-28 melanoma", "value": "> 100", "unit": "µM"}, {"measurement": "TGI", "setting": "SK-MEL-5 melanoma", "value": "> 100", "unit": "µM"}, {"measurement": "TGI", "setting": "SK-OV-3 ovarian", "value": "> 100", "unit": "µM"}, {"measurement": "TGI", "setting": "SN12C renal", "value": "> 100", "unit": "µM"}, {"measurement": "TGI", "setting": "SNB-19 CNS", "value": "> 100", "unit": "µM"}, {"measurement": "TGI", "setting": "SNB-75 CNS", "value": "> 100", "unit": "µM"}, {"measurement": "TGI", "setting": "SR leukemia", "value": "> 100", "unit": "µM"}, {"measurement": "TGI", "setting": "SW-620 colon", "value": "> 100", "unit": "µM"}, {"measurement": "TGI", "setting": "T-47D breast", "value": "> 100", "unit": "µM"}, {"measurement": "TGI", "setting": "TK-10 renal", "value": "> 100", "unit": "µM"}, {"measurement": "TGI", "setting": "U251 CNS", "value": "> 100", "unit": "µM"}, {"measurement": "TGI", "setting": "UACC-257 melanoma", "value": 90.4, "unit": "µM"}, {"measurement": "TGI", "setting": "UACC-62 melanoma", "value": "> 100", "unit": "µM"}, {"measurement": "TGI", "setting": "UO-31 renal", "value": "> 100", "unit": "µM"}]}]}
